Measurements published in patent US10221163B2 (priority 2015, dated 2019).
Like-named read-outs stand apart in the source and are kept apart here.

Tests used:
[1] = system: Pseudomonas aeruginosa efflux− (MB9799), IMP-1; format: cell-based; conditions: concentration restoring susceptibility to imipenem at 2 μg/mL in the presence of a class A, C, D serine β-lactamase inhibitor closely related to relebactam
Summary of the method: (§1)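 PAO1 pair, broth microdilution; fixed β-lactam (imipenem/ceftazidime) at ~CLSI breakpoint + fixed class A/C BLI for AmpC; serial MBLi titration; endpoint = MBLi conc. restoring susceptibility; MB9798:MB9799 ratio = efflux liability.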

NDM-1 = NDM-1 (Klebsiella pneumoniae, UniProt C7C422); assay: biochemical; format: biochemical; conditions: fluorescence assay, CCF2-FA substrate, 1 pM enzyme, 2 hours at 25° C.; read-out: NDM-1 IC50
Chain of NDM-1 (C7C422 whole entry, looked up, species assumed): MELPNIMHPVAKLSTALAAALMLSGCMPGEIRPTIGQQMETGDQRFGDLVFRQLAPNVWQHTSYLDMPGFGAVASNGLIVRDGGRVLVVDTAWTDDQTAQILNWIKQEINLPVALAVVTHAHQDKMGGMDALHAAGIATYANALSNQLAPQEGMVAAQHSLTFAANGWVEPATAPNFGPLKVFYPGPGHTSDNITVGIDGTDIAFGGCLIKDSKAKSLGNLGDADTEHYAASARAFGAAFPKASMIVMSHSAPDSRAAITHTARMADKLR
Summary of the method: (§2)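 Inhibitor was mixed with the metallo-β-lactamase and CCF2-FA. After 2 hours at 25° C, fluorescence of the coumarin–fluorescein cephalosporin substrate was read. IC50 was calculated with a 4-parameter fit.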

IMP-1 = IMP-1 (Serratia marcescens, UniProt P52699); assay: biochemical; format: biochemical; conditions: fluorescence assay, CCF2-FA substrate, 2 pM enzyme, 2 hours at 25° C.; read-out: IMP-1 IC50
Chain of IMP-1 (P52699 whole entry, looked up, species assumed): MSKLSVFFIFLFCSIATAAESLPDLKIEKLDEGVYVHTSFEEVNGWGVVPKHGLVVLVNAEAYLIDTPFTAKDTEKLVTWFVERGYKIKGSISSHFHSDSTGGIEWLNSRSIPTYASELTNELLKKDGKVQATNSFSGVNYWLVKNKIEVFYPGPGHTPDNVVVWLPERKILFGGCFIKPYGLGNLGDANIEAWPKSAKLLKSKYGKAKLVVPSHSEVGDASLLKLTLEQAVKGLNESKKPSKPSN
Summary of the method: as §2

VIM-1 = VIM-1 (Pseudomonas aeruginosa (strain ATCC 15692 / DSM 22644 / CIP 104116 / JCM 14847 / LMG 12228 / 1C / PRS 101 / PAO1), UniProt A0A0F7KYQ8); assay: biochemical; conditions: CCF2-FA substrate, 30 pM enzyme, 2 hours at 25° C.
Summary of the method: as §2

[2] = system: Klebsiella pneumoniae expressing VIM-1 (IHMA599644); format: cell-based; conditions: for Klebsiella pneumoniae expressing VIM-1 (IHMA599644) MITC95: with imipenem 1 μg/ml, 95% inhibition of bacterial growth; for Klebsiella pneumoniae MITC95: VIM-1 strain IHMA599644, with imipenem 1 μg/ml, 95% inhibition of growth
Summary of the method: (§3)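 Clinical isolates (E. coli NDM-1, S. marcescens IMP-1, K. pneumoniae VIM-1) were diluted 1:100 from saline suspension into 1.1×CAMHB and exposed to test compound with imipenem at 1 μg/ml. Plates were incubated at 35° C for 22 hours to 24 hours, and growth was read by absorbance.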

[3] = system: Serratia marcescens expressing IMP-1 (CL5741); format: cell-based; conditions: for Serratia marcescens expressing IMP-1 (CL5741) MITC95: with imipenem 1 μg/ml, 95% inhibition of bacterial growth; for Serratia marcescens MITC95: IMP-1 strain CL5741, with imipenem 1 μg/ml, 95% inhibition of growth
Summary of the method: as §3

[4] = system: Escherichia coli expressing NDM-1 (CLB30005, CLB30016); format: cell-based; conditions: with imipenem 1 μg/ml; for Escherichia coli expressing NDM-1 (CLB30016) MITC95: 95% inhibition of bacterial growth; for Escherichia coli MITC95: NDM-1 strain, 95% inhibition of growth
Summary of the method: as §3

[5] = system: Pseudomonas aeruginosa MB9798 vs MB9799; conditions: ratio MITC95 PA_9798/MITC95 PA_9799
Summary of the method: as §1

[6] = system: Pseudomonas aeruginosa efflux+ (MB9798), IMP-1; format: cell-based; conditions: concentration restoring susceptibility to imipenem at 2 μg/mL in the presence of a class A, C, D serine β-lactamase inhibitor closely related to relebactam
Summary of the method: as §1

[7] = fluorescence assay, read-out: VIM-1 IC50

Compound	P. aeruginosa expressing IMP-1, efflux − (MB9799) MITC95 [1] [µM]	IC50 (NDM-1) [nM]	IC50 (IMP-1) [nM]	IC50 (VIM-1; [7]) [nM]	Klebsiella pneumoniae expressing VIM-1 (IHMA599644) MITC95 [2] [µM]	Serratia marcescens expressing IMP-1 (CL5741) MITC95 [3] [µM]	Escherichia coli expressing NDM-1 (CLB30016) MITC95 [4] [µM]	Efflux ratio [5]	P. aeruginosa expressing IMP-1, efflux + (MB9798) MITC95 [6] [µM]	IC50 (VIM-1; VIM-1 IC50, fluorescence assay) [nM]	Klebsiella pneumoniae MITC95 [2] [µM]	Serratia marcescens MITC95 [3] [µM]	Escherichia coli MITC95 [4] [µM]
NS(=O)(=O)c1c(S(=O)(=O)N[C@@H]2CCNC2)ccc(-c2cccc3nonc23)c1-c1nn[nH]n1 [Example 238]	0.7813	0.111	0.8	0.0653	1.563	0.7813	1.563	4.00	3.125				
NCCNS(=O)(=O)c1ccc(-c2cccc3nonc23)c(-c2nn[nH]n2)c1S(N)(=O)=O [Example 239]	0.7813	0.439	1.06	0.113	3.125	1.563	0.7813	8.00	6.25				
Nc1nc2c(-c3ccc(S(=O)(=O)N[C@@H]4CNC[C@@H]4N)c(S(N)(=O)=O)c3-c3nn[nH]n3)cccc2[nH]1 [Example 240]	0.7813	0.0569	0.745		1.563	0.7813	0.1953	1.00	0.7813	0.169			
Nc1nc2c(-c3ccc(S(=O)(=O)N[C@H]4CNC[C@H]4N)c(S(N)(=O)=O)c3-c3nn[nH]n3)cccc2[nH]1 [Example 241]	0.7813	0.0536	0.738		1.302	1.042	0.5208	0.83	0.651	0.182			
CNc1ccc(-c2ccc(S(=O)(=O)N[C@@H]3CCNC3)c(S(N)(=O)=O)c2-c2nn[nH]n2)cn1 [Example 242]	0.7813	0.0611	0.157	0.0841	1.563	0.7813	0.7813	1.00	0.7813				
CNc1ccc(-c2ccc(S(=O)(=O)NCCN)c(S(N)(=O)=O)c2-c2nn[nH]n2)cn1 [Example 243]	0.7813	0.276	0.312	0.194				1.00	0.7813		1.563	0.3906	0.3906
CN([C@H]1CCNC1)S(=O)(=O)c1ccc(-c2cccc3[nH]c(N)nc23)c(-c2nn[nH]n2)c1S(N)(=O)=O [Example 244, (S)-4-(2-amino-1H-benzo[d]imidazol-7-yl)-N1-methyl-N1-(pyrrolidin-3-yl)-3-(1H-tetrazol-5-yl)benzene-1,2-disulfonamide]	0.7813	1.3	6.58	6.75				2.00	1.563		1.563	1.563	0.7813
NCCN1CC[C@@H](NS(=O)(=O)c2ccc(-c3cccc4[nH]c(N)nc34)c(-c3nn[nH]n3)c2S(N)(=O)=O)C1 [Example 246, (R)-4-(2-amino-1H-benzo[d]imidazol-4-yl)-N1-(1-(2-aminoethyl)pyrrolidin-3-yl)-3-(2H-tetrazol-5-yl)benzene-1,2-disulfonamide]	0.7813	0.0405	0.853					2.00	1.563	0.12	1.563	1.563	0.7813
NCC(CO)(CO)NS(=O)(=O)c1ccc(-c2cccc3[nH]c(N)nc23)c(-c2nn[nH]n2)c1S(N)(=O)=O [Example 247, 4-(2-amino-1H-benzo[d]imidazol-4-yl)-N-1-(1-amino-3-hydroxy-2-(hydroxymethyl)propan-2-yl)-3-(2H-tetrazol-5-yl)benzene-1,2-disulfonamide]	0.7813	0.0331	0.504	0.149				2.00	1.563		3.125	1.563	0.7813
Nc1nc2c(-c3ccc(S(=O)(=O)NC[C@]4(N)CCNC4)c(S(N)(=O)=O)c3-c3nn[nH]n3)cccc2[nH]1 [Example 250, (S)-4-(2-amino-1H-benzo[d]imidazol-4-yl)-N1-((3-aminopyrrolidin-3-yl)methyl)-3-(2H-tetrazol-5-yl)benzene-1,2-disulfonamide]	0.7813	0.0335	0.513	0.2				1.00	0.7813		1.563	0.7813	0.3906
Nc1nc2c(-c3ccc(S(=O)(=O)NC[C@@]4(N)CCNC4)c(S(N)(=O)=O)c3-c3nn[nH]n3)cccc2[nH]1 [Example 251, (R)-4-(2-amino-1H-benzo[d]imidazol-4-yl)-N1-((3-aminopyrrolidin-3-yl)methyl)-3-(2H-tetrazol-5-yl)benzene-1,2-disulfonamide]	0.7813	0.0567	0.755	0.194				1.00	0.7813		1.563	0.7813	0.7813
Nc1nc2c(-c3ccc(S(=O)(=O)NC4CNC4)c(S(N)(=O)=O)c3-c3nn[nH]n3)cccc2[nH]1 [Example 252, 4-(2-amino-1H-benzo[d]imidazol-4-yl)-N1-(azetidin-3-yl)-3-(2H-tetrazol-5-yl)benzene-1,2-disulfonamide]	0.6133	0.0426	0.654	0.149				0.68	0.418		0.8359	0.7383	0.4271
CN(C1CNC1)S(=O)(=O)c1ccc(-c2cccc3[nH]c(N)nc23)c(-c2nn[nH]n2)c1S(N)(=O)=O [Example 255, 4-(2-amino-1H-benzo[d]imidazol-4-yl)-N1-(azetidin-3-yl)-N1-methyl-3-(2H-tetrazol-5-yl)benzene-1,2-disulfonamide]	0.7813	0.113	2.84	0.936				2.00	1.563		0.7813	0.7813	0.3906
CN1CC(NS(=O)(=O)c2ccc(-c3cccc4[nH]c(N)nc34)c(-c3nn[nH]n3)c2S(N)(=O)=O)C1 [Example 256, 4-(2-amino-1H-benzo[d]imidazol-4-yl)-N1-(1-methylazetidin-3-yl)-3-(2H-tetrazol-5-yl)benzene-1,2-disulfonamide]	0.7813	0.0416	0.609	0.168				1.00	0.7813		1.563	0.7813	0.3906
